# Experimental data as given in US20230346815A1, “LMP7-SELECTIVE INHIBITORS FOR THE TREATMENT OF BLOOD DISORDERS AND SOLID TUMORS” (Merck Patent GmbH, priority 2020, published 2023).
# “Also recorded” adds a separate entry of the source.
# Experiments:
# OPM-2 = experiment: Efficacy in the multiple myeloma xenograft model OPM-2; type: in vivo, mouse; settings: t(4;14)-positive OPM-2 xenograft; compound 9 10 mg/kg per os once daily; vs bortezomib 0.5 mg/kg i.v., ixazomib 3 mg/kg per os, carfilzomib 2 mg/kg i.p., each twice per week; FIG. 1
# Method: The human multiple myeloma cell line OPM-2 was obtained from the German Collection of Microorganisms and Cell Cultures GmbH (DSMZ). 100 μL of a suspension of 5 million cells in phosphate-buffered saline (PBS) mixed 1:1 with Matrigel (Becton Dickinson) was injected per mouse. Bortezomib was formulated in Mannitol (Merck KGaA) in 0.9% NaCl and applied intravenously (i.v.) to mice at a dose of 0.5 mg/kg twice per week. Ixazomib was formulated in 5% KLEPTOSE® in water and applied orally (per os) to mice at a dose of 3 mg/kg twice per week. Carfilzomib was formulated in 5% KLEPTOSE® (AppliChem) in 50 mM sodium citrate buffer and applied by intraperitoneal (i.p.) injection to mice at a dose of 2 mg/kg twice per week. Compound 9 was formulated in 0.5% METHOCEL™ Premium K4M (Colorcon) and 0.25% Tween® 20 in PBS at applied per os to mice once daily at a dose of 10 mg/kg. Mean tumor volume and standard error of the mean (SEM) are indicated.
# NCI-H929 = experiment: Efficacy in the multiple myeloma xenograft model NCI-H929; type: in vivo, mouse; settings: t(4;14)-positive NCI-H929 xenograft, compound 9 10 mg/kg per os once daily
# Method: The human multiple myeloma cell line NCI-H929 was obtained from the American Type Culture Collection (ATCC). 100 μL of a suspension of 5 million cells in PBS mixed 1:1 with Matrigel was injected per mouse. Bortezomib, carfilzomib and compound 9 were formulated and applied as described in Example 1. Mean tumor volume and SEM are indicated.
# NCI-H929 xenograft tumors were established as described in Example 2. Compound 9 and ixazomib were formulated and applied as described in Example 1.
# MM.1S = experiment: Efficacy in the multiple myeloma xenograft model MM.1S; type: in vivo, mouse; settings: t(14;16)-positive MM.1S xenograft; compound 9 10 mg/kg per os once daily; vs bortezomib, ixazomib, carfilzomib 3 mg/kg i.v. twice per week; FIG. 4
# Method: The human multiple myeloma cell line MM.1S was obtained from the ATCC. 100 μL of a suspension of 5 million cells in PBS was injected per mouse. Bortezomib, ixazomib and compound 9 were formulated and applied as described in Example 1. Carfilzomib was formulated as described in Example 1 and applied intravenously (i.v.) to mice at a dose of 3 mg/kg twice per week.
# RPMI 8826 = experiment: Efficacy in the multiple myeloma xenograft model RPMI 8826; type: in vivo, mouse; settings: t(14;16)-positive RPMI 8826 xenograft; compound 9 10 mg/kg per os once daily; vs bortezomib, carfilzomib, ixazomib; FIG. 5
# Method: The human multiple myeloma cell line RPMI 8826 was obtained from the ATCC. 100 μL of a suspension of 5 million cells in PBS mixed 1:1 with Matrigel was injected per mouse. Bortezomib, carfilzomib, ixazomib and compound 9 were formulated and applied as described in Example 1.
# Caspase-3/-7 activity = experiment: Caspase 3/7 activity in MM.1S xenograft tumors in vivo; design: species or system mouse; settings: compound 9 applied once per os 10 mg/kg, vs vehicle control and bortezomib, carfilzomib, ixazomib single dose, FIG. 7
# Method: MM.1S xenograft tumors samples from the same experiment described in Example 6 were used for assessment of Caspase-3/-7 activity as an indication of tumor cell apoptosis. 50 μg of tumor lysate protein in a total volume of 50 μL was mixed with the Caspase-Glo®3/7 Reagent (Promega) in 96-well plates according to the manufacturer's instruction. Luminescence was measured using an Envision 2104 plate reader (PerkinElmer).
# LMP7 [1] = target: T1, LMP7 (Homo sapiens, UniProt P20618+P28062); experiment: LMP7 activity in MM.1S xenograft tumors in vivo, cleavage of (Ac-ANW)2R110; design: from tissue; host or cells: MM.1S xenograft tumor lysate (tumors grown in mice); species or system mouse; settings: compound 9 applied once per os 10 mg/kg, vs control and bortezomib, carfilzomib, ixazomib single dose, FIG. 6
# Method: MM.1S xenograft tumors were established as described in Example 4. Compound 9, bortezomib, carfilzomib and ixazomib were formulated as described in Example 1. Compound 9 was applied once per os to mice at a dose of 10 mg/kg. Bortezomib was applied once i.v. to mice at a dose of 0.5 mg/kg. Ixazomib was applied once per os to mice at a dose of 3 mg/kg. Carfilzomib was applied once i.v. at a dose of 3 mg/kg. MM1S tumors were collected immediately following mouse euthanasia and lysed as described previously (Buchstaller et al., 2019). For assessment of LMP7 activity, 10 μg of tumor lysate protein in a total volume of 50 μL was mixed in 96-well plates with 50 μl of a buffer containing 100 mM HEPES pH 7.6, 60 mM MgSO4, 1 mM EDTA, 40 μg/ml digitonin and the fluorogenic LMP7 substrate (Ac-ANW)2R110 (from Biomol) at a final concentration of 10 μM. Plates were then shaken briefly, incubated for 60 min at 37° C. and then centrifuged at 300×g. Fluorescence (excitation 485 nm, emission 535 nm) was measured using an EnVision 2104 plate reader (PerkinElmer).
# LMP7 [2] = target: T1, LMP7; settings: as previously described, Singh et al., 2011; cited from earlier work
smiles,measurement,setting,value
"O=C(N[C@@H](Cc1coc2ccccc12)B(O)O)[C@@H]1C[C@H]2CC[C@@H]1O2 [Compound 9, [(1R)-2-(1-benzofuran-3-yl)-1-{[(1S,2R,4R)-7-oxabicyclo[2.2.1]heptan-2-yl]formamido}ethyl]boronic acid]",in vivo anti-tumor activity (mean tumor volume),OPM-2,"increased efficacy as compared to bortezomib, carfilzomib, and ixazomib"
same,in vivo anti-tumor activity (mean tumor volume),"NCI-H929; vs bortezomib and carfilzomib, FIG. 2",increased efficacy as compared to bortezomib and carfilzomib
same,in vivo anti-tumor activity (mean tumor volume),"NCI-H929; vs ixazomib 3 mg/kg per os twice per week, FIG. 3",comparable activity of compound 9 as compared to the pan-proteasome inhibitor ixazomib
same,in vivo anti-tumor activity (mean tumor volume),MM.1S,"increased anti-tumor activity of compound 9 as compared to bortezomib and carfilzomib, and comparable activity as compared to ixazomib"
same,in vivo anti-tumor activity (mean tumor volume),RPMI 8826,"increased in vivo activity of compound 9 as compared to ixazomib and carfilzomib, and comparable activity when compared to bortezomib"
same,Caspase-3/-7 activity (induction of apoptosis) in tumor lysate,Caspase-3/-7 activity,longer than compared to the pan-proteasome inhibitors; also recorded: significant induction of apoptosis
same,LMP7 activity in tumor lysate,LMP7 [1],stronger and more prolonged than for the other pan-proteasome inhibitors tested; also recorded: significant reduction of enzymatic function of LMP7
CC1=C(C(=O)N[C@H](C)C(=O)N[C@@H](Cc2c[nH]c3ccccc23)C(=O)N[C@@H](Cc2ccccc2)C(=O)[C@@]2(C)CO2)Cc2ccccc21 [PR-924],LMP7 selectivity,LMP7 [2],100 fold
